Results: paper PMC9532399, “The lysosomal transporter TAPL has a dual role as peptide translocator and phosphatidylserine floppase” (Nature Communications, 2022)
Each block holds one molecule with its values, some of them ahead of it.

Experiments:
Type in all cases: biochemical
[1] = molecular target: T1, mouse TAPL ΔTMD0 (Mus musculus, UniProt Q9JJ59); assay: Lipid-stimulated ATPase assay, DM-purified ΔTMD0; details: lipid stimulation, 3 mM ATP
T1 construct: thrombin cleavage site (C); eGFP (C); 10XHis (C); made in house; host or cells: Trichoplusia ni High Five (Hi5) insect cells, baculovirus (pVL1393)
T1 sequence (Q9JJ59 143-762): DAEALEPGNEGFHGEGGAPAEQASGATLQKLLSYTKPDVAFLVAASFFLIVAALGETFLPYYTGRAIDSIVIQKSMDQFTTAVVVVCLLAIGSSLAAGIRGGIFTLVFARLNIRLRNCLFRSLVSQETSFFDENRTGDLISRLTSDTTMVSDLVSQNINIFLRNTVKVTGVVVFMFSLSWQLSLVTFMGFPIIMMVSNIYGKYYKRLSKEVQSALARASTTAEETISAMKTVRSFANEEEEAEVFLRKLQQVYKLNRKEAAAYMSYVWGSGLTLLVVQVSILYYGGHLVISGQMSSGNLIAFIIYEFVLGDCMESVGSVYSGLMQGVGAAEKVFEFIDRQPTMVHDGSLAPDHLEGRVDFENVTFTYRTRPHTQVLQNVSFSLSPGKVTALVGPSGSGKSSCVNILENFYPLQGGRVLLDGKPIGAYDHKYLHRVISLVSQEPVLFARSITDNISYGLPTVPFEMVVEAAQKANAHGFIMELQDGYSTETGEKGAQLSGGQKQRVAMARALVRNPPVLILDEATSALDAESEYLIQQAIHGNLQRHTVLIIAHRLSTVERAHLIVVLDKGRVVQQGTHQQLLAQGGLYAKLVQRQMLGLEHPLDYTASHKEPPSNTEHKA
Experimental: (§1) The ATPase activities of proteins obtained after various purification procedures were determined by NADH-coupled spectrophotometric assays. 10 μg of DM-purified or nanodisc-reconstituted protein was added to 140 μL of reaction buffer containing 50 mM HEPES–KOH pH 8.0, 60 μg/mL pyruvate kinase (Roche), 16 μg/mL lactate dehydrogenase (Roche), 10 mM phosphoenolpyruvate (Roche), 0.3 mM NADH, 3 mM ATP, 10 mM MgCl2, and 0.17% (w/v) DM in the presence or absence of 250 μM peptide. For proteins reconstituted into nanodiscs, DM was not added to the reaction buffer. For lipid-stimulated ATPase assays, the thin film of lipids was hydrated in 100 μL of buffer containing 50 mM HEPES–KOH pH 8.0 and 10 mM MgCl2 to yield a 10 mM solution. After sonication of the lipid solution for 10 min to decrease its turbidity, the reaction was initiated by adding varying concentrations of lipids to the mixture. ATP hydrolysis activity was monitored at 37 °C for 3 min by measuring the rate of decline of NADH absorbance at 340 nm. To inhibit ATP hydrolysis, the reaction mixture was incubated with 3 mM AMP-PNP or 8 mM NaF/2 mM BeSO4 for 5 min at RT. The kinetic parameters of ATP hydrolysis were calculated by fitting the initial rates of ATP hydrolysis to the Michaelis–Menten equation using PRISM 4.0 (GraphPad software).

[2] = molecular target: T1, mouse TAPL ΔTMD0; assay: Dithionite-based flip-flop (floppase) assay of NBD*-labeled lipids, ΔTMD0 proteoliposomes; details: NBD*-labeled lipid; PE, PG, PC and cholesterol data not shown
Experimental: All lipids used in reconstitution were purchased from Avanti Polar Lipids, Inc. (purity > 99%). The in vitro flip–flop assay was performed using NBD* dye-labeled proteoliposomes as described previously. Briefly, E. coli polar lipids and egg PC were mixed in a 1:1 molar ratio, and 0.5% (mol/mol) NBD*-lipid was added. The lipid mixture was then dried under nitrogen gas. The NBD*-lipids used were 18:1-06:0 NBD*-PS (1-oleoyl-2-{6-[(7-nitro-2-1,3-benzoxadiazol-4-yl)amino]hexanoyl}-sn-glycero-3-phosphoserine), 18:1-06:0 NBD*-PC (1-oleoyl-2-{6-[(7-nitro-2-1,3-benzoxadiazol-4-yl)amino]hexanoyl}-sn-glycero-3-phosphocholine), 18:1-06:0 NBD*-PG (1-oleoyl-2-{6-[(7-nitro-2-1,3-benzoxadiazol-4-yl)amino]hexanoyl}-sn-glycero-3-[phospho-rac-(1-glycerol)]), 18:1-06:0 NBD*-PE (1-oleoyl-2-{6-[(7-nitro-2-1,3-benzoxadiazol-4-yl)amino]hexanoyl}-sn-glycero-3-phosphoethanolamine), and 25-NBD*-Cholesterol (25-[N-[(7-nitro-2-1,3-benzoxadiazol-4-yl)methyl]amino]−27-norcholesterol). Thin lipid films were solubilized in 20 mM HEPES–NaOH pH 8.0, 200 mM NaCl and 5% (v/v) glycerol, incubated at RT for 30 min and subjected to 5 freeze–thaw cycles. After extrusion with a Mini-Extruder at 65 °C, final lipid concentrations were determined by phosphorus assays. Briefly, 10 μL of extruded lipid was added to 10 μL of 2% (w/v) ammonium molybdate and 300 μL of concentrated perchloric acid. The mixture was heated at 250 °C for 30 min, then cooled to RT and mixed with 1.5 mL of 0.4% (w/v) ammonium molybdate and 250 μL of 9% (w/v) L-ascorbic acid. It was again heated at 100 °C for 6 min and cooled to RT. Lipid concentrations were calculated from the absorbance at 820 nm using a standard curve prepared with NaH2PO4 solution. After accurately determining the lipid concentration, DM-purified protein and 5 mM lipid suspension (solubilized in 5 mM DM) were mixed 1:25 (w/w). After incubation at 4 °C for 1.5 h, DM detergent was removed with 75 mg Bio-beads SM-2 by periodic gentle shaking for 1 h at 4 °C (Supplementary Fig. 5a). The beads were replaced once, followed by an additional incubation at 4 °C for 2 h to completely remove detergent. The resulting proteoliposomes were collected by ultracentrifugation at 200,000×g for 1.5 h at 4 °C.
To measure the flip–flop activity, 10 μL of 2 mM NBD*-labeled proteoliposomes were added to 100 μL of reaction buffer (20 mM HEPES–NaOH pH 8.0, 200 mM NaCl, 5 mM ATP and 5% (v/v) glycerol) in the presence of 2 mM MgCl2 (or NaCl), and incubated at 37 °C for 1 h. The mixture was transferred to a 96-well plate and time-dependent fluorescence (λex/λem = 460/538 nm) was recorded every 30 s for 26 min using a fluorescence spectrophotometer (Gemini XPS). After the baseline fluorescence had stabilized, 10 mM sodium dithionite was added to quench the fluorescence of NBD*-lipid present in the outer leaflets of the liposomes. The initial rapid drop and subsequent slow decline in fluorescence intensity were monitored. When a new steady state was established, 1% (v/v) Triton X-100 was added to completely disrupt the liposomes. The net percentage of NBD*-lipid translocated across the lipid bilayer was calculated from the following equation[72]: the percentage of protected NBD*-lipid in the inner leaflet = [(FD−F0)/(FT−F0)]×100, and that of accessible NBD*-lipid in the outer leaflet = [(FT−FD)/(FT−F0)]×100, where FT is the total fluorescence of the sample before the addition of dithionite, FD is the fluorescence of the sample after quenching with dithionite, and F0 is any residual fluorescence of the sample after solubilization with Triton X-100. Fluorescence values (FT, FD, F0) were calculated as the averages of 5 points on the respective plateau lines. The ΔTMD0-mediated lipid floppase activity was determined by subtracting the percentage of NBD*-lipid fluorescence measured in the presence of Na^+/ATP from that measured in the presence of Mg^2+/ATP.

[3] = molecular target: T1, mouse TAPL ΔTMD0; assay: Peptide transport assay, ΔTMD0 proteoliposomes; details: for reduction of peptide transport: 5-IAF-labeled peptide, ATP-dependent, relative to 9-mer; for Transport activity: peptide 10 mM (sic), + 3 mM ATP
Experimental: Proteoliposomes for peptide transport assays were prepared according to the protocol of Zhao et al., with some modifications. Briefly, E. coli polar lipid extract dissolved in chloroform was dried under a gentle stream of nitrogen. The thin film of lipids was placed under a desiccator overnight to completely remove residual chloroform and then hydrated in 1X PBS buffer pH 7.4 (137 mM NaCl, 2.7 mM KCl, 8 mM Na2HPO4, and 2 mM KH2PO4) with 10 mM MgCl2 and 5% (v/v) glycerol. After water bath sonication at 22 °C for 5 min (Powersonic 610, KLEENTEK), the lipid solution was extruded using a Mini-Extruder equipped with a polycarbonate membrane filter (200 nm pore) (Avanti Polar Lipids, Inc.) to obtain unilamellar vesicles, which were destabilized with 0.36% (w/v) DM. The DM-purified protein and lipid suspension were mixed in a 1:50 (w/w) ratio. After incubation at 4 °C for 2 h, the mixture was treated with Bio-Beads SM-2 resin (60 and 120 mg, see above) at 4 °C for a total of 18 h to remove detergent. The proteoliposomes were collected by centrifugation at 200,000×g for 1.5 h at 4 °C and resuspended in the buffer described above.
The peptide transport activity of ΔTMD0 was measured as described previously. Briefly, 50 μL of ΔTMD0-loaded proteoliposomes (~0.6 μg protein) were added into 200 μL reaction buffer containing 1X PBS pH 7.4, 3 mM ATP, and 10 mM MgCl2 in the presence or absence of 10 μM 5-IAF-labeled peptides. To investigate transport activity, the mixture was incubated at 37 °C for 10 min. The reaction was terminated by incubating the mixture for 20 min on ice. Proteoliposomes were collected by centrifugation at 200,000×g for 30 min and then washed twice with 1X PBS. The proteoliposomes were completely disrupted by adding 10% (w/v) SDS solution (final concentration, 2%). The transported peptide was measured using a microplate reader (Gemini XPS) with excitation at 485 nm and emission at 520 nm.

[4] = molecular target: T1, mouse TAPL ΔTMD0; assay: NADH-coupled ATPase assay, DM-purified ΔTMD0; details: for ATP hydrolysis in presence of ATP analogs: in the presence of 9-mer peptide
Experimental: as §1

[5] = 9-mer + ATP set at 100%, 37 °C 10 min, mean n=3

maximal ATPase activity (turnover) [1]: 88 min⁻¹ | maximal ATPase activity (Vmax) ([1]; means ± SEM): 649 ± 35 nmol/mg/min
Molecule: CCCCCCCC/C=C\CCCCCCCC(=O)OC(COC(=O)CCCCCCCCCCCCCCC)COP(=O)([O-])OCC[N+](C)(C)C (centres unmarked) [POPC, 1-palmitoyl-2-oleoyl-glycero-3-phosphocholine]

ATP-dependent lipid transport by ΔTMD0 [2]: very low
Molecule: CCCCCCCC/C=C\CCCCCCCC(=O)OC[C@H](COP(=O)(O)OCCN)OC(=O)CCCCCNc1ccc([N+](=O)[O-])c2nonc12 [NBD*-PE, 1-oleoyl-2-{6-[(7-nitro-2-1,3-benzoxadiazol-4-yl)amino]hexanoyl}-sn-glycero-3-phosphoethanolamine]

ATP-dependent lipid transport by ΔTMD0 [2]: very low
Molecule: CCCCCCCC/C=C\CCCCCCCC(=O)OC[C@H](COP(=O)([O-])OCC[N+](C)(C)C)OC(=O)CCCCCNc1ccc([N+](=O)[O-])c2nonc12 [NBD*-PC, 1-oleoyl-2-{6-[(7-nitro-2-1,3-benzoxadiazol-4-yl)amino]hexanoyl}-sn-glycero-3-phosphocholine]

ATP-dependent lipid transport by ΔTMD0 [2]: very low
Molecule: CCCCCCCC/C=C\CCCCCCCC(=O)OC[C@H](COP(=O)(O)OCC(O)CO)OC(=O)CCCCCNc1ccc([N+](=O)[O-])c2nonc12 (mixture of isomers) [NBD*-PG, 1-oleoyl-2-{6-[(7-nitro-2-1,3-benzoxadiazol-4-yl)amino]hexanoyl}-sn-glycero-3-[phospho-rac-(1-glycerol)]]

Vmax ([4]; basal ATPase activity, DM-purified ΔTMD0): 394 ± 10 nmol/mg/min | Km ([4]; basal ATPase activity, DM-purified ΔTMD0, read-out: Km for ATP): 497 ± 61 µM
Molecule: Nc1ncnc2c1ncn2[C@@H]1O[C@H](COP(=O)(O)OP(=O)(O)OP(=O)(O)O)[C@@H](O)[C@H]1O [ATP]

maximal ATPase activity (turnover) [1]: 155 min⁻¹ | Km ([1]; means ± SEM): 105 ± 16 µM | maximal ATPase activity (Vmax) ([1]; means ± SEM): 1147 ± 41 nmol/mg/min
Molecule: CCCCCCCC/C=C\CCCCCCCC(=O)O[C@H](COC(=O)CCCCCCCCCCCCCCC)COP(=O)(O)OCC(O)CO (mixture of isomers) [POPG, 1-palmitoyl-2-oleoyl-sn-glycero-3-phospho-(1’-rac-glycerol)]

Further lines, the molecule ahead of its results:

Molecule: CC(CCC[C@@H](C)[C@@H]1CC[C@H]2[C@@H]3CC=C4C[C@@H](O)CC[C@]4(C)[C@H]3CC[C@@]21C)N(C)c1ccc([N+](=O)[O-])c2nonc12 (some centres unmarked) [NBD*-cholesterol, 25-[N-[(7-nitro-2-1,3-benzoxadiazol-4-yl)methyl]amino]−27-norcholesterol]
ATP-dependent lipid transport by ΔTMD0 [2]: failed to detect ΔTMD0-mediated translocation

Molecule: RRYQNSTELRRYQNSTELNSTC^5-IAFL [23-mer, 5-IAF-labeled 23-mer peptide]
reduction of peptide transport [3]: 80% | Transport activity [3, 5]: 20.2607% | Transport activity ([3]; replicate I): 20.4488% | Transport activity ([3]; replicate II): 15.9535% | Transport activity ([3]; replicate III): 24.3798%

Molecule: Nc1ncnc2c1ncn2[C@@H]1O[C@H](COP(=O)(O)OP(=O)(O)NP(=O)(O)O)[C@@H](O)[C@H]1O [AMP-PNP]
ATP hydrolysis in presence of ATP analogs [4]: prevented ATP hydrolysis

Molecule: RRYQNSTELRRYQNSTC^5-IAFL [18-mer, 5-IAF-labeled 18-mer peptide]
reduction of peptide transport [3]: 90% | Transport activity [3, 5]: 10.0006% | Transport activity ([3]; replicate I): 11.6836% | Transport activity ([3]; replicate II): 10.1438% | Transport activity ([3]; replicate III): 8.174%

Molecule: ADP·BeF3
ATP hydrolysis in presence of ATP analogs [4]: prevented ATP hydrolysis
